Article PMC8271847, “In Silico Approach Using Free Software to Optimize the Antiproliferative Activity and Predict the Potential Mechanism of Action of Pyrrolizine-Based Schiff Bases” (Molecules, 2021)
Where two headings read alike, the source gives them in different places.

Key:
MCF7 cells [1] = experiment: MTT antiproliferative activity assay, MCF7; format: cell-based; details: for IC50: Homo sapiens, MCF7, MTT, 72 h, mean ± S.D. (n = 3); for Selectivity Index MCF7: IC50 against MRC5 divided by IC50 against MCF7
Experimental: (§1) The antiproliferative activities of the eight Schiff bases 16a–h against three cancer cell lines (MCF-7, A2780, and HT29) were evaluated using the MTT assay. The selection of these cell lines was done to compare the antiproliferative activities of the new compounds with those of compound 10 [20]. The assay was performed following the previous report.
(§2) In the current study, the three cancer cell lines (MCF7, A2780, and HT29) used were obtained from the ATCC. The cell lines were cultured following our previous report. On the other hand, the normal MRC5 cells used in the current study were maintained in Eagle’s minimum essential medium following the previous report.
(§3) The antiproliferative activity was measured using the MTT assay according to the previous report. Briefly, the cancer/normal cell lines were cultured in 96-well (3 × 10^3/well) separately. The cells were treated by tested compounds 16a–h in final concentrations of 0, 0.1, 1, 10, 25, and 50 μM and incubated at 37 °C for 72 h. The MTT was added and the antiproliferative activities (IC50 values) of the new compounds were calculated.

A2780 cells [2] = experiment: MTT antiproliferative activity assay, A2780; format: cell-based; details: for IC50: Homo sapiens, A2780, MTT, 72 h, mean ± S.D. (n = 3); for Selectivity Index A2780: IC50 against MRC5 divided by IC50 against A2780
Experimental: as §1, §2, §3

HT29 cells [3] = experiment: MTT antiproliferative activity assay, HT29; format: cell-based; details: for IC50: Homo sapiens, HT-29, MTT, 72 h, mean ± S.D. (n = 3); for Selectivity Index HT29: IC50 against MRC5 divided by IC50 against HT29
Experimental: as §1, §2, §3

[4] = MTT assay against normal MRC5 cells; format: cell-based; details: human, 72 h treatment, mean ± SD (n = 3)
Experimental: Selectivity of the antiproliferative agents toward cancer cells plays a critical role in the development of these agents as potential anticancer drugs. […] In the current study, all of the new compounds 16a–h were evaluated for the antiproliferative activities against the normal MRC5 cells. […] The aim of this study was to assess the toxicity of the new compounds against normal MRC5 cells. In addition, the IC50 values were also used to calculate the selectivity index (SI) which measures the selective cytotoxicity of the new compounds.
as §2, §3

[5] = test system: MCF7, A2780 and HT29 cancer cell lines; experiment: MTT antiproliferative activity assay, three cancer cell lines together; format: cell-based; details: for Selectivity index range toward the three cancer cell lines: MCF7, A2780, HT29 compared to MRC5 cells; for IC50: MCF7, A2780 and HT29, MTT, 72 h, read-out: IC50 range against the three cancer cell lines
Experimental: as §1, §2, §3

MCF7 cells [6] = experiment: Cell cycle analysis by flow cytometry; format: cell-based; details: MCF7 cells, 0.01, 0.05, 0.10 μM, 72 h
Experimental: Cell cycle analysis of MCF7 cells was also performed to investigate the mechanism which mediates the antiproliferative activity of the new compounds. […] The assay was performed according to the previous report. The results are represented in Figure 11.
The effect of compound 16g on the cell cycle distribution of MCF7 was performed following the previous report. Briefly, the cancer cells were cultured for 72 h with 0.00, 0.01, 0.05, and 0.10 μM final concentration of compound 16g. Next, the cells were washed with PBS x1 and trypsinized. The collected cells were spinned and fixed with 70% ethanol. Ribonuclease A was added (15 min) after suspending the cells in cold PBS x1. Following the addition of propidium iodide, analysis of the ice-cold cells was done by flow cytometry (BC, FC500, Brea, CA, USA).

COX-2 = details: cited from earlier work
COX-1 = test system: COX-1; design: method as in PMID 26994693; details: Figure 2; cited from earlier work
5-LOX = test system: 5-LOX; design: method as in PMID 26994693; details: Figure 2; cited from earlier work
A549 cells = details: cited from earlier work
MCF7 cells [7] = test system: MCF7 cells; design: method as in PMID 31259695; details: quoted from previous publication; cited from earlier work
A2780 cells [8] = test system: A2780 cells; design: method as in PMID 31259695; details: quoted from previous publication; cited from earlier work
HT29 cells [9] = test system: HT29 cells; design: method as in PMID 31259695; details: quoted from previous publication; cited from earlier work
[10] = test system: MCF7, A2780 and HT29 cancer cell lines; design: method as in PMID 31259695; details: read-out: IC50 range against the three cancer cell lines; cited from earlier work
MCF7 = details: Figure 2; cited from earlier work
[11] = Figure 2, read-out: IC50 (COX-2)

Structure (SMILES) | IC50 (MCF7 cells [1]) | IC50 (A2780 cells [2]) | IC50 (HT29 cells [3]) | IC50 at 72 h [4] | melting point | Selectivity Index HT29 (HT29 cells [3]) | Selectivity Index A2780 (A2780 cells [2]) | Selectivity Index MCF7 (MCF7 cells [1]) | also measured
Cc1ccc(-c2c(-c3ccc(S(C)(=O)=O)cc3)cn3c2CCC3)cc1 [Compound 9] |  |  |  |  |  |  |  |  | IC50 (COX-2; [11]): 0.005 µM; IC50 (COX-1): 0.7 µM; IC50 (5-LOX): 10 µM
CS(=O)(=O)CCNCc1ccc(-c2ccc3ncnc(Nc4ccc(OCc5cccc(F)c5)c(Cl)c4)c3c2)o1 [Lapatinib, lapatinib, reference compound] | 5.98 ± 1.31 µM | 9.86 ± 1.72 µM | 13.2 ± 1.82 µM | 14.9 ± 2.45 µM |  | 1.13 | 1.51 | 2.49 | IC50 [5]: 5.98 to 13.2 µM
O=C(c1ccccc1)c1ccc2n1CCC2C(=O)O (stereo not shown) [Ketorolac, ketorolac] |  |  |  |  |  |  |  |  | IC50 (COX-2; [11]): 0.14 µM; IC50 (A549 cells): ~13 µM
Cc1ccc(NC(=O)c2c(/N=C/c3ccc(Cl)cc3)c(C#N)c3n2CCC3)cc1 [Compound 10] |  |  |  |  |  |  |  |  | IC50 (MCF7 cells [7]): 0.33 ± 0.12 µM; IC50 (A2780 cells [8]): 0.44 ± 0.01 µM; IC50 (HT29 cells [9]): 0.41 ± 0.02 µM; IC50 [10]: 0.33 to 0.44 µM
CS(=O)(=O)c1ccc(C2=C(c3ccccc3)C(=O)OC2)cc1 [Rofecoxib, rofecoxib] |  |  |  |  |  |  |  |  | IC50 (COX-2; read-out: IC50 against COX-2): 0.53 µM
CC1(C)Cc2c(-c3ccccc3)c(-c3ccc(Cl)cc3)c(CC(=O)O)n2C1 [Licofelone] |  |  |  |  |  |  |  |  | IC50 (COX-2; [11]): 4.7 µM; IC50 (MCF7): 5.5 µM
COC1c2c(-c3ccccc3)c(-c3ccc(Cl)cc3)c(C)n2CC1(C)C (stereo not shown) [Compound 8] |  |  |  |  |  |  |  |  | IC50 (COX-2; [11]): 7.5 µM; IC50 (COX-1): 0.5 µM; IC50 (5-LOX): 0.06 µM

Continued, in another order:

IC50 (MCF7 cells [1]) | IC50 (A2780 cells [2]) | IC50 (HT29 cells [3]) | IC50 at 72 h [4] | melting point | Structure (SMILES) | Selectivity Index HT29 (HT29 cells [3]) | Selectivity Index A2780 (A2780 cells [2]) | Selectivity Index MCF7 (MCF7 cells [1]) | also measured
0.03 ± 0.01 µM | 0.14 ± 0.02 µM | 2.27 ± 0.61 µM | 24.1 ± 1.31 µM | 231 to 233 °C | COc1ccc(NC(=O)c2c(N=Cc3ccc(C)cc3)c(C#N)c3n2CCC3)cc1 [Compound 16c, 7-Cyano-N-(4-methoxyphenyl)-6-((4-methylbenzylidene)amino)-2,3-dihydro-1H-pyrrolizine-5-carboxamide] | 10.60 |  |  | 
0.01 µM | 0.56 ± 0.01 µM | 0.37 ± 0.18 µM | 5.78 ± 0.63 µM | 241 to 243 °C | COc1ccc(NC(=O)c2c(N=Cc3ccc(Cl)cc3)c(C#N)c3n2CCC3)cc1 [Compound 16g, 6-((4-Chlorobenzylidene)amino)-7-cyano-N-(4-methoxyphenyl)-2,3-dihydro-1H-pyrrolizine-5-carboxamide] | 15.62 | 10.32 |  | Selectivity index range toward the three cancer cell lines [5]: 10.32–578.00; Cell cycle perturbation (MCF7 cells [6]): cell cycle arrest at the G2/M phase
0.08 ± 0.01 µM | 0.9 ± 0.08 µM | 10.2 ± 0.12 µM | 1.27 ± 0.32 µM | 244 to 246 °C | CN(C)c1ccc(C=Nc2c(C#N)c3n(c2C(=O)Nc2ccc(F)cc2)CCC3)cc1 [Compound 16b, 7-Cyano-6-((4-(dimethylamino)benzylidene)amino)-N-(4-fluorophenyl)-2,3-dihydro-1H-pyrrolizine-5-carboxamide] | 0.12 | 1.41 | 15.88 | 
40.5 ± 10.6 µM | 13.9 ± 1.92 µM | 0.19 ± 0.02 µM | 1.27 ± 0.48 µM | 226 to 228 °C | COc1ccc(NC(=O)c2c(N=Cc3ccc(N(C)C)cc3)c(C#N)c3n2CCC3)cc1 [Compound 16a, 7-Cyano-6-((4-(dimethylamino)benzylidene)amino)-N-(4-methoxyphenyl)-2,3-dihydro-1H-pyrrolizine-5-carboxamide] | 6.68 | 0.09 | 0.03 | Selectivity index range toward the three cancer cell lines [5]: 0.03–6.68; IC50 [5]: 0.19 to 40.5 µM
26.9 ± 1.67 µM | 42.6 ± 3.47 µM | 0.71 ± 0.29 µM | 1.6 ± 0.12 µM | 262 to 264 °C | N#Cc1c(N=Cc2ccc(Cl)cc2)c(C(=O)Nc2ccc(F)cc2)n2c1CCC2 [Compound 16h, 6-((4-Chlorobenzylidene)amino)-7-cyano-N-(4-fluorophenyl)-2,3-dihydro-1H-pyrrolizine-5-carboxamide] | 2.25 | 0.04 | 0.06 | 
0.15 ± 0.02 µM | 1.4 ± 0.21 µM | 0.34 ± 0.03 µM | 2.77 ± 0.09 µM | 239 to 241 °C | COc1ccc(NC(=O)c2c(N=Cc3ccc(F)cc3)c(C#N)c3n2CCC3)cc1 [Compound 16e, 7-Cyano-6-((4-fluorobenzylidene)amino)-N-(4-methoxyphenyl)-2,3-dihydro-1H-pyrrolizine-5-carboxamide] | 8.15 | 1.98 | 18.47 | 
40.5 ± 7.7 µM | 0.49 ± 0.12 µM | 0.21 ± 0.12 µM | 1.34 ± 0.45 µM | 253 to 255 °C | N#Cc1c(N=Cc2ccc(F)cc2)c(C(=O)Nc2ccc(F)cc2)n2c1CCC2 [Compound 16f, 7-Cyano-6-((4-fluorobenzylidene)amino)-N-(4-fluorophenyl)-2,3-dihydro-1H-pyrrolizine-5-carboxamide] | 6.38 | 2.73 | 0.03 | 
7.05 ± 0.28 µM | 21.2 ± 2.43 µM | 0.17 ± 0.01 µM | 2.42 ± 0.56 µM | 241 to 243 °C | Cc1ccc(C=Nc2c(C#N)c3n(c2C(=O)Nc2ccc(F)cc2)CCC3)cc1 [Compound 16d, 7-Cyano-N-(4-fluorophenyl)-6-((4-methylbenzylidene)amino)-2,3-dihydro-1H-pyrrolizine-5-carboxamide] | 14.24 | 0.11 | 0.34 | 
